Laboratory results as given in patent publication US7335355B2, “Antimicrobial agent” (Hansa Medical AB, priority 2000, dated 2008).
Like-named read-outs stand apart in the source and are kept apart here.

What was measured:
E. faecalis gelatinase [1] = molecular target: T1, E. faecalis gelatinase (Enterococcus faecalis, UniProt Q833V7); format: biochemical; conditions: 6 mU gelatinase, 1 hour
T1 construct: The E. faecalis strain contained gelatinase and supernatants were used directly; made in house; host or cells: Enterococcus faecalis isolate from a chronic venous wound (natural producer); unpurified culture supernatant

P. aeruginosa elastase = conditions: 1 hour; for Inhibition of LL-37 degradation by P. aeruginosa elastase: 12 mU elastase; for Inhibition of LL-37 degradation by P. aeruginosa elastase by sulphated saccharides: 1 μg LL-37, 12 mU elastase, 15 μl 10 mM Tris-buffer
P. aeruginosa = test: Anti-microbial assay (CFU) with α-defensin 1 with or without GAG chains; format: cell-based, Pseudomonas aeruginosa; conditions: 4 h, 37° C.
S. pyogenes = test: as above; conditions: 2 h, 37° C.
Protocol: (§1) FIG. 1A illustrates the killing of bacteria by α-defensin. 2×10^6 CFU/ml of S. pyogenes (□) E. faecalis (●) and P. aeruginosa (◯) were incubated with α-defensin at the indicated peptide concentrations for 2 h (S. pyogenes and E. faecalis) or 4 h (P. aeruginosa) at 37° C., and CFU were determined.
(§2) For anti-microbial assays S. pyogenes, E. faecalis and P. aeruginosa were grown to mid-log phase in TH-medium. Bacteria were washed and diluted in 10 mM Tris-HCl, pH 7.5, containing 5 mM glucose. 50 μl bacteria (2×10^6 cfu/ml) were incubated with α-defensin at concentrations ranging from 0-40 μg/ml with or without the addition of various GAG chains at concentrations of 2-400 μg/ml. Incubations were carried out at 37° C. for 2 h (S. pyogenes and E. faecalis) or 4 h (P. aeruginosa). To quantitate the microbicidal activity serial dilutions of the incubation mixture were plated on TH agar, incubated at 37° C. over night and the number of CFU were determined.

E. faecalis [2] = test: as above; conditions: 2 h, 37° C.
Protocol: as §1, §2

LL-37 = molecular target: T2, LL-37 (Homo sapiens, UniProt P49913); test: Slot-binding assay: iodinated dermatan sulphate (DS36) binding to LL-37 on nitrocellulose, competition; conditions: LL-37 0.2-5 μg on nitrocellulose
T2 sequence (P49913 134-170 limits assumed): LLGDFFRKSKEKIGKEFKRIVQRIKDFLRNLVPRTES
Protocol: LL-37 (0.2-5 μg) was applied onto nitrocellulose and incubated with iodinated dermatan sulphate (DS36). Different polysaccharides were added for competition of binding. DS36, DS18, DS13 (dermatan sulphate 36, 18, and 13), CS4 and CS6 (chondroitin sulphate 4 and 6), CS-D (chondroitin sulphate D) and CS-E (chondroitin sulphate E).
LL-37 (0.2-5 μg) was applied onto nitrocellulose and incubated with iodinated dermatan sulphate (DS36). Different cationic substances, as indicated on top of the various panels, were added for competition of binding. (a), p-1-lys; poly-L-lysine, p-1-arg; poly-L-arginine, DEAE; DEAE-dextran, PB; polybrene. (b), CH; chitosan, PEI, polyethyleneimine, PM; protamine, PMX; polymyxin B, PMXnp; polymyxin B nonapeptide.
Radioiodination of DS36 was performed according to previous protocols (F Cheng, K. Yoshida, D. Heinegard, L. Å. Fransson, Glycobiology, 2, 553 (1992)). Slot-binding assays were carried out as follows: α-defensin peptide I (Bachem, Switzerland) was blotted onto nitrocellulose membranes (Hybond, Amersham). Membranes were blocked (PBS, pH 7.4, 0.25% Tween 20, 3% bovine serum albumin) for 1 h and incubated with radiolabelled DS (˜20 μl/ml) for 1 h in the same buffer. Unlabelled polysaccharides were added for competition of binding (2 mg/ml). The membranes were washed (3×10 min) (PBS, pH 7.4, 0.25% Tween 20). Bas 2000 radioimaging system (Fuji) was used for visualization of radioactivity.
LL-37 (0.2-5 μg) was applied onto nitrocellulose and incubated with iodinated dermatan sulphate (DS36). Different polysaccharides were added for competition of binding: DS36, DS18, DS13, CS-4, CS-6, CS-D (chondroitin sulphate D) and CS-E (chondroitin sulphate E). […] Radiolabelled DS was, however, displaced by DS-36, DS18, DS13 and CS-E.
The effects of various cationic molecules on the DS-LL-37 interaction were monitored using slot-blot assays as described in Example 2. DS binding to LL-37 was blocked by poly-L-lysine, poly-L-arginine, DEAE-dextran, polybrene, chitosan and polyethyleneimine.

[3] = molecular target: T3, S. pyogenes cysteine proteinase (Streptococcus pyogenes, UniProt P0C0J0)
Target sequence in this assay (P0C0J0 146-398 limits assumed): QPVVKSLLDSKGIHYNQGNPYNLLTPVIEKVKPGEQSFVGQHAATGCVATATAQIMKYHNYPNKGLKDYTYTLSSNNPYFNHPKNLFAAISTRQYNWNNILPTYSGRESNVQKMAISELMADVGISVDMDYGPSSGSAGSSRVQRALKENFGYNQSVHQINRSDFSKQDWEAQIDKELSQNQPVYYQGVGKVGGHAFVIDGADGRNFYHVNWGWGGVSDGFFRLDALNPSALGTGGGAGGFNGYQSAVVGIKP

[4] = molecular target: T3, S. pyogenes cysteine proteinase; remark: listed apart in the source
E. faecalis gelatinase [5] = molecular target: T4, E. faecalis gelatinase (Enterococcus faecalis, UniProt Q833V7); format: biochemical; conditions: 1 μg LL-37, 3 mU, 1 hour and 6 hours
T4 construct: The E. faecalis strain contained gelatinase and supernatants were used directly; made in house; host or cells: Enterococcus faecalis isolate from a chronic venous wound (natural producer); unpurified culture supernatant
T4 sequence (Q833V7 whole entry, looked up): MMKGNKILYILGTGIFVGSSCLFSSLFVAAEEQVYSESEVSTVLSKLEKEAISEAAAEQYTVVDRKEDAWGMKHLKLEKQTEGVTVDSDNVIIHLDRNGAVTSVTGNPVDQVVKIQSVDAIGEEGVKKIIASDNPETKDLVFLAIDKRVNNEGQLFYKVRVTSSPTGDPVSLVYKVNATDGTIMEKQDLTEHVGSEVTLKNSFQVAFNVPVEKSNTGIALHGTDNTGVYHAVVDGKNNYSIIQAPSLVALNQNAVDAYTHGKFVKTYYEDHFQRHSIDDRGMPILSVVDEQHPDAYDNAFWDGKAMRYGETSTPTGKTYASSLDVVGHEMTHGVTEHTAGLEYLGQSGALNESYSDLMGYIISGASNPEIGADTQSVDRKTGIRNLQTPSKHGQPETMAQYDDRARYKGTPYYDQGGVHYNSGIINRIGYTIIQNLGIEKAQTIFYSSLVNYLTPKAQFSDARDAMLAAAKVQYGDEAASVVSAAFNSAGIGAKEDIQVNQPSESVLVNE

E. faecalis [6] = test: Bactericidal assay of LL-37 after incubation with P. aeruginosa elastase; format: cell-based, Enterococcus faecalis; conditions: 0.1 μg LL-37, E. faecalis 2×10^6 cfus/ml, 2 h, 37° C.
α-defensin 1 = molecular target: T5, α-defensin 1 (Homo sapiens, UniProt P59665); test: Slot-binding assay: radioiodinated DS binding to blotted α-defensin 1, competition by unlabelled polysaccharides; conditions: unlabelled polysaccharide 2 mg/ml, ~100-fold excess
T5 construct: purchased Bachem, Switzerland
T5 sequence (P59665 65-94 limits assumed): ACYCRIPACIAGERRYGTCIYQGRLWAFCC
Protocol: 0.2-5 μg α-defensin 1 was blotted onto nitrocellulose and probed with radioiodinated dermatan sulfate (DS).

c1cnc2c(c1)ccc1cccnc12 [1,10-phenantroline, reference compound]
Inhibition of LL-37 degradation by E. faecalis gelatinase (E. faecalis gelatinase [1]; inhibitor 2 mM): Degradation was abolished | Inhibition of LL-37 degradation by P. aeruginosa elastase (P. aeruginosa elastase; inhibitor 2 mM): Degradation was abolished

α-defensin 1: cationic antimicrobial peptide α-defensin (SEQ ID NO: 2), from Bachem
α-defensin 1 concentration at which bacteria were effectively killed (P. aeruginosa): ≥ 4 µg/mL | α-defensin 1 concentration at which bacteria were effectively killed (S. pyogenes): ≥ 4 µg/mL | α-defensin 1 concentration at which bacteria were effectively killed (E. faecalis [2]): ≥ 4 µg/mL

polybrene
Effect of cationic molecules on DS binding to LL-37 (LL-37): blocked

CC(=O)NC1C(O)OC(COS(=O)(=O)O)C(OS(=O)(=O)O)C1OC1OC(C(=O)O)=CC(O)C1OS(=O)(=O)O [ΔUA(2S)-GalNAc(4,6S)]
Inhibition of LL-37 degradation by P. aeruginosa elastase by sulphated saccharides (P. aeruginosa elastase): inhibited the degradation

polyethyleneimine
Effect of cationic molecules on DS binding to LL-37 (LL-37): blocked

CC(C)C[C@H](NC(=O)[C@H]1O[C@@H]1C(=O)O)C(=O)NCCCCN=C(N)N [E64]
Effect on degradation of decorin and high molecular weight proteoglycans by S. pyogenes extracellular products [3]: completely blocked the effect | Effect on degradation of decorin by S. pyogenes cysteine proteinase [3]: abolished degradation | Inhibition of LL-37 degradation by S. pyogenes cysteine proteinase [4]: Degradation was abolished

DEAE-dextran
Effect of cationic molecules on DS binding to LL-37 (LL-37): blocked

O=S(=O)(O)OC[C@H]1O[C@@](COS(=O)(=O)O)(O[C@H]2O[C@H](COS(=O)(=O)O)[C@@H](OS(=O)(=O)O)[C@H](OS(=O)(=O)O)[C@H]2OS(=O)(=O)O)[C@@H](OS(=O)(=O)O)[C@@H]1OS(=O)(=O)O [sucroseoctasulphate]
Inhibition of LL-37 degradation by P. aeruginosa elastase by sulphated saccharides (P. aeruginosa elastase): inhibited the degradation

protamine [reference compound]
Effect of cationic molecules on DS binding to LL-37 (LL-37): Reduced levels of binding

Polymyxin B [reference compound]
Effect of cationic molecules on DS binding to LL-37 (LL-37): did not block the binding

polymyxin B nonapeptide [reference compound]
Effect of cationic molecules on DS binding to LL-37 (LL-37): did not block the binding

LL-37: cationic antimicrobial peptide LL-37 (SEQ ID NO: 1)
Degradation of LL-37 by E. faecalis gelatinase (E. faecalis gelatinase [5]): degradation of LL-37 by bacterial proteinases | Bactericidal activity of LL-37 after incubation with P. aeruginosa elastase (E. faecalis [6]): inactivated | Degradation of LL-37 by S. pyogenes cysteine proteinase [4]: degradation of LL-37 by bacterial proteinases

dextran sulfate
Competition of radiolabelled DS binding to α-defensin 1 by unlabelled polysaccharide (α-defensin 1): displaced the radiolabelled DS

heparin [reference compound]
Competition of radiolabelled DS binding to α-defensin 1 by unlabelled polysaccharide (α-defensin 1): displaced the radiolabelled DS

CNC(=O)[C@H](Cc1c[nH]c2ccccc12)NC(=O)[C@@H](CC(=O)NO)CC(C)C [GM6001, reference compound]
Inhibition of LL-37 degradation by E. faecalis gelatinase (E. faecalis gelatinase [1]; inhibitor 100 μM): Degradation was abolished | Inhibition of LL-37 degradation by P. aeruginosa elastase (P. aeruginosa elastase; inhibitor 100 μM): Degradation was abolished

poly-L-arginine
Effect of cationic molecules on DS binding to LL-37 (LL-37): blocked

dextran
Competition of radiolabelled DS binding to α-defensin 1 by unlabelled polysaccharide (α-defensin 1): not

chitosan
Effect of cationic molecules on DS binding to LL-37 (LL-37): blocked

poly-L-lysine
Effect of cationic molecules on DS binding to LL-37 (LL-37): blocked
